Measurements: patent US12624018B1, “Inhibitors of RIPK2 and medical uses thereof” (Odyssey Therapeutics, Inc., priority 2022, dated 2026)

What was measured:
[1] = molecular target: T1, RIPK2 and XIAP protein-protein interaction (Homo sapiens, UniProt O43353); assay: Inhibition of the interaction of RIPK2 with XIAP (NanoBRET in HEK293T cells); assay type: cell-based; conditions: RIPK2 HaloTag / XIAP NanoLuc, read-out: NanoBRET Scaffolding IC50
T1 construct: the N-terminus of full-length RIPK2 was appended with the HaloTag fusion protein; expressed in transfected cells; host or cells: HEK293T
How it was run: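 HEK293T cells transiently co-transfected with HaloTag-RIPK2 (N-terminal) and XIAP-NanoLuc (C-terminal) full-length fusions, grown 24 h at 37° C. in Opti-MEM with 4% FBS. Compounds tested as 10-point 3-fold dilutions; NanoBRET ratio taken as 618 nm acceptor over 460 nm donor emission.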

[2] = tested on: human NOD2 signaling; assay: Inhibition of human NOD2 signaling in HEK-Blue-hNOD2 cells (L18-MDP stimulated, SEAP reporter); assay type: cell-based; conditions: Homo sapiens, HEK-Blue hNOD2, HEK-Blue-hNOD2 cells, NOD2 ligand stimulation, SEAP reporter; read-out: hNOD2 IC50
How it was run: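 Read-out is SEAP absorbance at 620 nm after 3 h QUANTI-Blue development of supernatant from HEK293 cells carrying NOD2 and a SEAP reporter (12500/well). Cells got compound (10 points, 3-fold dilutions) and 0.5 ng/mL L18-MDP for 24 h at 37 °C; percent inhibition vs stimulated/unstimulated controls, 4-parameter IC50.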

T1 sequence (O43353 whole entry, the tested form may be a part): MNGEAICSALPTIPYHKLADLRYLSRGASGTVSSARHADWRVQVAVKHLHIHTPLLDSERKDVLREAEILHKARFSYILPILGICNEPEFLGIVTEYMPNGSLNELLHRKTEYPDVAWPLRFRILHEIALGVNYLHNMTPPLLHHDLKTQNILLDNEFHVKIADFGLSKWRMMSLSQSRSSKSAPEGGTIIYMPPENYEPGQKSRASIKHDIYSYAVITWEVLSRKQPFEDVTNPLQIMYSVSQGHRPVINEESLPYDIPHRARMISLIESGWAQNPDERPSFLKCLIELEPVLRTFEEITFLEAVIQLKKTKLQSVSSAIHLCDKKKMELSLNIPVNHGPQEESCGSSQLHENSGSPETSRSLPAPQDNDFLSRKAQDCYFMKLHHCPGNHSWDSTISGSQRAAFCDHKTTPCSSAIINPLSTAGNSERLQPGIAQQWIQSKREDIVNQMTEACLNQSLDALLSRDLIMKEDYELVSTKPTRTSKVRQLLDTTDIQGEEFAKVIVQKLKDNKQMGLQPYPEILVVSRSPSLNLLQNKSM

IC50 [1] [nM] | IC50 [2] [nM] | SMILES
61.4 | 1.2 | Cc1cc(CC(=O)Nc2cnn(C(C)(C)C)c2)cc(C)c1Oc1ccnc2cc(F)c(C(N)=O)cc12 [Compound 581, 4-(4-(2-((1-(tert-butyl)-1H-pyrazol-4-yl)amino)-2-oxoethyl)-2,6-dimethylphenoxy)-7-fluoroquinoline-6-carboxamide]
54 | 9 | CC(C)(C)n1cc(NC(=O)Cc2ccc(Oc3ccnc4ccc(S(C)(=O)=O)cc34)cc2F)cn1 [Compound 38, N-(1-(tert-butyl)-1H-pyrazol-4-yl)-2-(2-fluoro-4-((6-(methylsulfonyl)quinolin-4-yl)oxy)phenyl)acetamide]
29 | 5.9 | Cc1cc(CC(=O)Nc2cnn(C(C)(C)C)c2)ccc1Oc1ccnc2ccc(OC3CCNCC3)cc12 [Compound 83, N-(1-(tert-butyl)-1H-pyrazol-4-yl)-2-(3-methyl-4-((6-(piperidin-4-yloxy)quinolin-4-yl)oxy)phenyl) acetamide]
12 | 0.5 | Cc1c(Oc2ccnc3ccc(S(C)(=O)=O)cc23)ccc(CC(=O)Nc2cnn(C(C)(C)C)c2)c1F [Compound 91, N-(1-(tert-butyl)-1H-pyrazol-4-yl)-2-(2-fluoro-3-methyl-4-((6-(methylsulfonyl)quinolin-4-yl)oxy)phenyl)acetamide]
8 | 0.2 | CNC(=O)c1ccc2nccc(Oc3cc(F)c(CC(=O)Nc4cnn(C(C)(C)C)c4)cc3C)c2c1 [Compound 360, 4-(4-(2-((1-(tert-butyl)-1H-pyrazol-4-yl)amino)-2-oxoethyl)-5-fluoro-2-methylphenoxy)-N-methylquinoline-6-carboxamide]
15 | 0.3 | CCS(=O)(=O)c1ccc2nccc(Oc3ccc(CC(=O)Nc4cnn(C(C)(C)C)c4)cc3C)c2c1 [Compound 99, N-(1-(tert-butyl)-1H-pyrazol-4-yl)-2-(4-((6-(ethylsulfonyl)quinolin-4-yl)oxy)-3-methylphenyl)acetamide]
33 | 2.2 | Cc1cc(CC(=O)Nc2cnn(C(C)(C)C)c2)c(F)cc1Oc1ccnc2ccc(S(C)(=O)=O)cc12 [Compound 113, N-(1-(tert-butyl)-1H-pyrazol-4-yl)-2-(2-fluoro-5-methyl-4-((6-(methylsulfonyl)quinolin-4-yl)oxy)phenyl)acetamide]
12 | 0.7 | Cc1cc(CC(=O)Nc2cnn(C(C)(C)C)c2)ccc1Oc1ccnc2ccc(S(C)(=O)=O)cc12 [Compound 86, N-(1-(tert-butyl)-1H-pyrazol-4-yl)-2-(3-methyl-4-((6-(methylsulfonyl)quinolin-4-yl)oxy)phenyl)acetamide]
14 | 0.5 | Cc1cc(CC(=O)Nc2cnn(C(C)(C)C)c2)c(F)cc1Oc1ccnc2ccc(C(N)=O)cc12 [Compound 359, 4-(4-(2-((1-(tert-butyl)-1H-pyrazol-4-yl)amino)-2-oxoethyl)-5-fluoro-2-methyl-phenoxy) quinoline-6-carboxamide]
